Results published in patent US20110143948A1, “MOLECULAR SIGNATURES AND BIOMARKERS ASSOCIATED WITH MELANOMA AND METHODS OF USE THEREOF” (priority 2008, published 2011).

System: ncRNAs (SEQ ID NO 28-89)
Assay: ncRNA arrays of melanocytes, keratinocytes, normal skin, melanoma cell lines and patient samples
Set-up: species or system human
Details: for ncRNA array expression, patient 2: melanoma patient 2 sample compared to normal skin; for ncRNA array expression, patient 3: melanoma patient 3 sample compared to normal skin; for ncRNA array expression, patient 4: melanoma patient 4 sample compared to normal skin; for ncRNA array expression, patient 5: melanoma patient 5 sample compared to normal skin; for ncRNA array expression, patient 6: melanoma patient 6 sample compared to normal skin; for ncRNA array expression, patient 7: melanoma patient 7 sample compared to normal skin; for ncRNA array expression, patient 8: melanoma patient 8 sample compared to normal skin; for ncRNA array expression, patient 9: melanoma patient 9 sample compared to normal skin; for ncRNA array expression, patient 10: melanoma patient 10 sample compared to normal skin; for ncRNA array expression, patient 19: melanoma patient 19 sample compared to normal skin; for ncRNA array expression, patient 20: melanoma patient 20 sample compared to normal skin; for ncRNA array expression, patient 21: melanoma patient 21 sample compared to normal skin; for ncRNA array expression, patient 22: melanoma patient 22 sample compared to normal skin; for ncRNA array expression, patient 23: melanoma patient 23 sample compared to normal skin; for ncRNA array expression, patient 24: melanoma patient 24 sample compared to normal skin; for ncRNA array expression, patient 25: melanoma patient 25 sample compared to normal skin; for ncRNA array expression, patient 26: melanoma patient 26 sample compared to normal skin; for ncRNA array expression, patient 27: melanoma patient 27 sample compared to normal skin; for ncRNA array expression, patient 28: melanoma patient 28 sample compared to normal skin; for ncRNA array expression, patient 29: melanoma patient 29 sample compared to normal skin; for ncRNA array expression, patient 30: melanoma patient 30 sample compared to normal skin
Procedure: An ncRNA array platform that contains over 10,000 putative (>200 nt) ncRNAs including most of the known ncRNAs in mouse and human was conducted to evaluate ncRNAs within melanoma. Lack of coding potential was estimated by an algorithm that scores various characteristics of protein-coding genes, including open reading frame length, synonymous/non-synonymous base substitution rates and similarity to known proteins. These arrays provide the first generation of tools designed to analyze the dynamic expression of a large subset of ncRNAs in human and mouse and to identify candidate genes for more detailed functional analysis. In addition to the ncRNA content, probes targeting mRNA content from RefSeq are also included, allowing discovery of coordinated expression with associated protein-coding genes. The result of these assays is a list of ncRNA genes (i.e. SEQ ID NO 28-89) and maps of their sequence boundaries. We have profiled total RNA isolated from melanocytes, keratinocytes, normal human skin, melanoma cell lines and melanoma patient samples to identify differentially expressed ncRNAs in cell lines and tissues. ncRNAs expression in all tested samples were compared to either melanocytes or normal skin. We have identified a group of ncRNAs that are specific for (a) melanocytes (b) Keratinocytes (c) Melanoma cell lines (d) Melanoma patients. […] Probe DNA sequences for this array include: AF086032 (SEQ ID NO 107) […] BC071821 (SEQ ID NO 108) […] C AK130193 (SEQ ID NO 109) […] AL109719 (SEQ ID NO 110) […] AF085888 (SEQ ID NO 111) […] T BC033879 (SEQ ID NO 112) […] AA AK024556 (SEQ ID NO 113) […] Probe nomenclature is standard genebank IDs given by NCBI and other organizations.
Keratinocytes specific signatures were subtracted and resultant ncRNAs were validated by qRT-PCR and Northern blots. Results point out the presence of a group of melanoma specific ncRNAs (i.e. SEQ ID NO 28-89).

Substance | ncRNA array expression, patient 2 | ncRNA array expression, patient 3 | ncRNA array expression, patient 4 | ncRNA array expression, patient 5 | ncRNA array expression, patient 6 | ncRNA array expression, patient 7 | ncRNA array expression, patient 8 | ncRNA array expression, patient 9 | ncRNA array expression, patient 10 | ncRNA array expression, patient 19 | ncRNA array expression, patient 20 | ncRNA array expression, patient 21 | ncRNA array expression, patient 22 | ncRNA array expression, patient 23 | ncRNA array expression, patient 24 | ncRNA array expression, patient 25 | ncRNA array expression, patient 26 | ncRNA array expression, patient 27 | ncRNA array expression, patient 28 | ncRNA array expression, patient 29 | other results
SEQ ID NO 34 (TTTTCTCTGCTTATTACCCTCCCTGTTTCCTCCTGGGCTGCCAACAACATATTATATTAC; listed as DNA, chemistry not given here; listed as Homo sapiens) | 2.375 | 2.833 | 2.701 | 2.722 | 2.606 | 3.005 | 2.354 | 1.958 | −1.787 | 2.243 | 3.044 | 2.382 | 2.727 | 2.643 | 1.817 | 2.013 | 1.687 | 2.945 | 2.485 | 2.129 | ncRNA array expression, patient 30: −0.1242
SEQ ID NO 35 (GTTTCCATTGAAGAATATTACGCTCGGGGACAAGCCAGGTGCACGACCAAAAATTTAAAA; DNA, backbone and methylation of C not given here; listed as Homo sapiens) | 1.513 | 3.848 | 3.278 | 2.521 | 2.07 | 3.025 | 2.14 | −0.1931 | 3.606 | 0.9237 | 2.507 | 2.618 | 0.8167 | 2.729 | −2.783 | 1.774 | 3.301 | 3.86 | 4.108 | 3.127 | ncRNA array expression, patient 30: −0.8323
SEQ ID NO 36 (TATTTGTGACTAACTGTATAACAGGTTATTTTAGTTTCTGTTCTGTGGGAAGTGTAAAGC; listed as DNA, chemistry not given here; listed as Homo sapiens) | 3.977 | 3.577 | 4.181 | 4.05 | 3.52 | 4.601 | 4.36 | 3.565 | 2.818 | 3.798 | 4.669 | 3.909 | 3.164 | 2.96 | 3.815 | 5.084 | 4.401 | 4.909 | 4.878 | 4.381 | ncRNA array expression, patient 30: −1.698
